Results: ChEMBL document CHEMBL3272320, “Antidepressant and anticonvulsant activity of 1-(5-phenyl-4-oxazolin-2-yl)-4-substituted piperazines” (1976)
The source made the active and inactive calls. The calls are words filed in the database; no cut-off is given here.

Columns and labels:
Mus musculus [1] = assay: Antidepressant activity in po dosed mouse after 4 hrs by Dopa potentiation test relative to pemoline; type: functional
Mus musculus [2] = assay: Antidepressant activity in mouse at […] after 4 hrs by Dopa potentiation test; type: functional, organism-based
Mus musculus [3] = assay: Anticonvulsant activity in mouse assessed as protection against tonic extensor component of audiogenic seizures at 100 mg/kg, po; type: functional

| SMILES | fold change (FC) (Mus musculus [1]) | Activity (Mus musculus [2]) | Activity (Mus musculus [3]) |
| --- | --- | --- | --- |
| O=C1N=C(N2CCN(C(=O)/C=C/c3ccc(F)cc3)CC2)OC1c1ccccc1 (configuration not stated) | 2 | Active |  |
| COc1ccc(/C=C/C(=O)N2CCN(C3=NC(=O)C(c4ccccc4)O3)CC2)cc1 (configuration not stated) |  | Active |  |
| NC1=NC(=O)C(c2ccccc2)O1 (configuration not stated) [PEMOLINE] |  | Active | 90% |
| O=C1N=C(N2CCN(C(=O)Nc3ccc(Cl)cc3)CC2)OC1c1ccccc1 (configuration not stated) |  | Active | 50% |
| CNC(=O)N1CCN(C2=NC(=O)C(c3ccccc3)O2)CC1 (configuration not stated) |  | Active | 50% |
| COc1ccc(NC(=O)N2CCN(C3=NC(=O)C(c4ccccc4)O3)CC2)cc1 (configuration not stated) |  | Active | 20% |
| O=C1N=C(N2CCN(C(=O)Nc3ccccc3)CC2)OC1c1ccccc1 (configuration not stated) |  | Active | 50% |
| NC(=O)N1CCN(C2=NC(=O)C(c3ccccc3)O2)CC1 (configuration not stated) |  | Active | 10% |
| COc1cc(/C=C/C(=O)N2CCN(C3=NC(=O)C(c4ccccc4)O3)CC2)cc(Br)c1OC (configuration not stated) | 3 | Active |  |
| COc1cc(/C=C/C(=O)N2CCN(C3=NC(=O)C(c4ccccc4)O3)CC2)cc(OC)c1OC (configuration not stated) | 2.5 | Active |  |
| COc1cc(/C(C)=C/C(=O)N2CCN(C3=NC(=O)C(c4ccccc4)O3)CC2)cc(OC)c1OC (configuration not stated) |  | Active |  |
| CCN(CC)C(=O)N1CCN(C2=NC(=O)C(c3ccccc3)O2)CC1 (configuration not stated) |  | Active | 60% |
